Measurements from patent US11730712B2, “Functionalized long-chain hydrocarbon mono- and di-carboxylic acids and derivatives thereof, and their use for the prevention or treatment of disease” (ESPERVITA THERAPEUTICS, INC., priority 2021, dated 2023).
“And” between values parts separate entries of the source, which are not always exact repeats. Equal entries are not always repeated. Where two headings read alike, the source gives them in different places.

Assays:
Il-6 mRNA = Il-6 mRNA by RT-qPCR; type: cell-based
[1] = system: C57BL6J mice on high fat high fructose diet; assay: Hepatic de novo lipogenesis (14C-glucose incorporation) in murine model of NASH; type: in vivo, mouse; settings: for inhibition at 10 mg/kg / inhibition at 30 mg/kg / inhibition at 60 mg/kg: Mus musculus
Protocol: Experimental Protocol. FIG. 17A describes the study protocol. Mice were dosed daily for 7 days with a single dose of either Compound I-32 or Compound I-1 at a dose of 10 mg/kg, 30 mg/kg or 60 mg/kg. On the 8th day of the experiment mice receive final dose of Compound I-32 or Compound I-1, followed one hour later by an I.P. bolus of 14-C Glucose.
C57BL6J (8 weeks of age) were obtained for the Jackson Laboratory and fed a normal chow diet upon arrival. At ˜10 weeks of age, mice were given a diet containing high fat and high fructose (Rodent Diet with 40 kcal % Fat (Mostly Palm Oil), 20 kcal % fructose, and 0.02% cholesterol, obtained from Research Diets, Product Code: D19101102) and housed at thermoneutral conditions (26-29° C.). […] On the morning of day 8, animals received a final dose and after 1 hour […] (PerkinElmer) was administered at a concentration of 12 μCi per mouse in a volume of 0.1 ml in 0.9% saline I.P. One hour after ^14C-glucose was given, animals were anesthetized by I.P. injection of Ketamine/Xylazine (150 mg/12.4 mg/kg, respectively). Blood was drawn through cardiac puncture; the liver was removed, and a sample was from the left lobe and frozen in liquid nitrogen. Liver tissue was chipped on dry-ice and the weight of the chip weight recorded (30-50 mg of tissue). Liver tissue was homogenized in 1 ml of 2:1 chloroform:methanol using a bead homogenizer at 5000 rpm for 2×12 seconds. Samples were incubated with gentle shaking at 4° C. for 2 hours, vortexed for 2×12 seconds, and then centrifuge at 7000 rpm for 10 minutes at 4° C. The supernatant was transferred to a 1.5 ml Eppendorf and 200 μl of 0.9% saline was added. Samples were vortexed for 2×12 seconds and centrifuged at 3000 rpm for 10 minutes at 4° C. 200 μl of the lower organic phase was removed and added to 5 ml of scintillation fluid. The amount radioactivity in the sample was measured by scintillation counting. The number of disintegrations per minute (DPM) were determined over a 5-minute period and normalized to the amount of liver tissue. 5-10 μl of plasma obtained at termination was also counted and lipid/gram tissue counts were normalized to plasma counts. Statistical comparisons were carried out using a one-way ANOVA followed by Dunnett's post hoc test using GraphPad Prism 8 software. A p-value of less than or equal to 0.05 was used as the criterion of significance.

Hepa1-6 cells = assay: Drug interaction (combination) in Hepa1-6 cell proliferation; type: cell-based
Protocol: FIGS. 42A-42B show drug interaction effect of Compound I-32 (FIG. 42A) and Compound I-1 (FIG. 42B) in combination with regorafenib in Hepa1-6 cell proliferation. In FIG. 42A, “1+0.05 (μM)” means 1 μM Compound I-32+0.05 μM regorafenib, etc. In FIG. 42B, “1+0.05 (μM)” means 1 μM Compound I-1+0.05 μM regorafenib, etc.
In FIG. 46A, “1+0.05 (μM)” means 1 μM Compound I-1+0.05 μM sorafenib, etc. […] In FIG. 46B, “1+0.3 (μM)” means 1 μM Compound I-1+0.3 μM lenvatinib, etc. […] In FIG. 46C, “1+0.05 (μM)” means 1 μM Compound I-32+0.05 μM sorafenib, etc. […] In FIG. 46D, “1+0.3 (μM)” means 1 μM Compound I-32+0.3 μM lenvatinib, etc.

Human ACC2 = biological target: T1, Human ACC2 (Homo sapiens, UniProt O00763); assay: ACC2 enzymatic assay (ADP-Glo); type: biochemical; settings: recombinant human ACC2 1 nM, 10 μM ATP, 10 μM acetyl CoA; Run 1-3; read-out: Compound IC50 (M) ACC2
T1 construct: FLAG (C); His (C); purchased BPS Biosciences 50201; host or cells: Baculovirus infected Sf9 cells
Protocol: Human ACC1 (Cat#50202 Lot #120830) and ACC2 (Cat #50201 Lot #160217) were obtained from BPS Biosciences, San Diego, Calif. 92121. Human ACC1 had C-terminal flag and His-tags with a MW of 270 KDa after purification from Baculovirus infected Sf9 cell expression system and came as a solution in 50 mM Tris-HCl, pH 8.0, 500 mM NaCl, 10% glycerol, 1 mM DTT, 100 μg/ml FLAG peptide with 70% purity. The stock concentration was 0.25 mg/ml corresponding to 0.926 μM. Human ACC2 was also purified from Baculovirus infected Sf9 expression system. […] The stock concentration was 0.1 mg/ml corresponding to 0.36 μM. The assay buffer for measuring the activity of ACC contained: 30 mM HEPES (pH 7.4), 2 mM MgCl2, 0.01% Brij35, 2 mM DTT, 1% DMSO (solvent for compound). For ACC1 and ACC2 assays, the following concentrations of substrate and cofactors were used: 12 mM NaHCO3, 10 μM acetyl CoA, 10 μM ATP, and 2 mM K-citrate. The recombinant human enzyme was used at 5 nM for ACC1 and 1 nM for ACC2. In brief, enzyme alone in the above buffer without substrate was used for background. All test materials were dissolved in 100% DMSO using acoustic technology (Echo550). The prepared solution was preincubated for 15 min followed by the addition of 5 μL/well of ADP standard. ATP was then added to start the reaction. The assay contents were spun and briefly shaken followed by incubation at room temperature for 1 h. At the end of completion of assay, 5 μL of ADP-Glo was added to each well to stop the reaction. The contents were mixed, spun and incubated at room temperature for 40 min followed by the addition of 10 μL/well of ADP detection reagent. The contents were spun, mixed and covered with plastic to measure luminescence. […] The light generated, measured in a luminometer, correlates to the amount of ADP generated in the ACC assay, which is indicative of ACC activity.
The enzyme concentrations for ACC1 and ACC2 were 5 nM and 1 nM, respectively.
Data represent nM or μM ADP produced, % Activity (relative to no inhibitor controls), and curve fits were performed by GraphPad Prism software. […]

[2] = 10 mg/kg, read-out: % change from vehicle control, hepatic de novo lipogenesis (inhibition)
[3] = 30 mg/kg, read-out: % change from vehicle control, hepatic de novo lipogenesis (inhibition)
[4] = 60 mg/kg, read-out: % change from vehicle control, hepatic de novo lipogenesis (inhibition)

T1 sequence (O00763 whole entry): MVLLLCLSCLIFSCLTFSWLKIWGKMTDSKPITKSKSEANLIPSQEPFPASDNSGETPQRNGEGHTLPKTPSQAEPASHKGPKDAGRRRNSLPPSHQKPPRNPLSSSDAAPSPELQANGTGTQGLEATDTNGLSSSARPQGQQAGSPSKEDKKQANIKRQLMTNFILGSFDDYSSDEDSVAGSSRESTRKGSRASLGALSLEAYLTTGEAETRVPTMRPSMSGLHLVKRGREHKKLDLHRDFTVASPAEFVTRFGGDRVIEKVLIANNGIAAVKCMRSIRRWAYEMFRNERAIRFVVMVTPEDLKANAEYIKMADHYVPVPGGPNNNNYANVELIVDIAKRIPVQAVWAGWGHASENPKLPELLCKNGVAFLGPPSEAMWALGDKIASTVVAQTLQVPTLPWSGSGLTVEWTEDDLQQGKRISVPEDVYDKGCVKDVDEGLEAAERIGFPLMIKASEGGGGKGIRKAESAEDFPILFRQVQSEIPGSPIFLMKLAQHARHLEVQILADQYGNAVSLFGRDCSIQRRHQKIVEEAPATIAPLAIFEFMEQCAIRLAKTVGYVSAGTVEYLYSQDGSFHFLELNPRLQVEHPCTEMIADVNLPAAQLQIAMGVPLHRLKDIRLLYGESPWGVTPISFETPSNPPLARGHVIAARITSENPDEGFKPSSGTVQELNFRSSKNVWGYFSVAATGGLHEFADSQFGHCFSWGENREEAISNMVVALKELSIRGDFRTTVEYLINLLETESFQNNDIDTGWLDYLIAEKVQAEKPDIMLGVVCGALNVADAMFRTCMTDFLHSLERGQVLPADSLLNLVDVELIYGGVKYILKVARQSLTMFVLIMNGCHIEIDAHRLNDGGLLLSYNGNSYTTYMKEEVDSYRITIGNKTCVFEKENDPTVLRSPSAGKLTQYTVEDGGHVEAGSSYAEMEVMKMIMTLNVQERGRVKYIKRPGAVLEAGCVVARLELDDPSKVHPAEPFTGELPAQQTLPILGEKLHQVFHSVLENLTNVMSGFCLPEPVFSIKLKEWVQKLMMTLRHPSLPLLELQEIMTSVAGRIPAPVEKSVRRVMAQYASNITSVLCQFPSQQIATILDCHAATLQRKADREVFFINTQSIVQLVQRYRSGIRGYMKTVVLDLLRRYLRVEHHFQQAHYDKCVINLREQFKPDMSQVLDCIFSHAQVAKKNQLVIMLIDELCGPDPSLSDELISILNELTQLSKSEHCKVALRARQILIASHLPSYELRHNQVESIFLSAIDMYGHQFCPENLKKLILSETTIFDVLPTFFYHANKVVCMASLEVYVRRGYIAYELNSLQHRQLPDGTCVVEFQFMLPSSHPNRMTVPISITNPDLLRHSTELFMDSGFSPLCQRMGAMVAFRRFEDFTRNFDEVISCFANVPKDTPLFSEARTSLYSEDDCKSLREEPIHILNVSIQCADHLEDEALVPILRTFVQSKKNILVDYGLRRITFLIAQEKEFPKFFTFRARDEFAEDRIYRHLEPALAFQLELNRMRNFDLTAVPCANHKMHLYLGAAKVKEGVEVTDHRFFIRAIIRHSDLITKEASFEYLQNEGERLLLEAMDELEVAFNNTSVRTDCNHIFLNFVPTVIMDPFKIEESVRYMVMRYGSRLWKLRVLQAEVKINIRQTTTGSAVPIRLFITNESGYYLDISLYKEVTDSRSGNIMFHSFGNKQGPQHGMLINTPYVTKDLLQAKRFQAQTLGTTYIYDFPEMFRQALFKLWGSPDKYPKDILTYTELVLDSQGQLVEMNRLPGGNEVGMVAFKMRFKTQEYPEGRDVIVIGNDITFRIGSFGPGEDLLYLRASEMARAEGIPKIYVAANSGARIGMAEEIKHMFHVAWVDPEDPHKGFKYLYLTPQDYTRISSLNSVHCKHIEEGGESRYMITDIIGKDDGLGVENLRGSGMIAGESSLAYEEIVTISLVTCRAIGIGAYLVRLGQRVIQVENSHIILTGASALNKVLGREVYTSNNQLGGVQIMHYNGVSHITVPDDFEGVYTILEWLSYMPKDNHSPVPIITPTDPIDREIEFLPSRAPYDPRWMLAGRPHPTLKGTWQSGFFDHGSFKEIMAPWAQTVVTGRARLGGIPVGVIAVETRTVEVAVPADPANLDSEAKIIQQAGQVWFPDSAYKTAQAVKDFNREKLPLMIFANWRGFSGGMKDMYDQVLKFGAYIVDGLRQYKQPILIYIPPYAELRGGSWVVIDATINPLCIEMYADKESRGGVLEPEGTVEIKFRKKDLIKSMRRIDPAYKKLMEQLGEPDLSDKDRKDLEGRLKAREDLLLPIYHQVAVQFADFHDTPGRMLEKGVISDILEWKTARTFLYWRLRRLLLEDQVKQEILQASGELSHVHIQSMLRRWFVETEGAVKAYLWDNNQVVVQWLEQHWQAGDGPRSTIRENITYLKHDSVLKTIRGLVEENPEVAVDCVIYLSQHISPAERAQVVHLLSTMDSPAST

Row | Structure (SMILES) | marker of inflammation, Il-6 mRNA (Il-6 mRNA) | % change from vehicle control, hepatic de novo lipogenesis (inhibition) ([1]; 30 mg/kg) | % change from vehicle control, hepatic de novo lipogenesis (inhibition) ([1]; 60 mg/kg) | inhibition at 10 mg/kg [1, 2] | inhibition at 30 mg/kg [1, 3] | inhibition at 60 mg/kg [1, 4] | drug interaction effect in combination with lenvatinib (Hepa1-6 cells; at all tested concentrations) | drug interaction effect in combination with sorafenib (Hepa1-6 cells; at all tested concentrations) | IC50 (Human ACC2) | % change from vehicle control, hepatic de novo lipogenesis (inhibition) ([1]; 10 mg/kg) | inhibition at 10 mg/kg ([1]; 10 mg/kg, 30 mg/kg and 100 mg/kg, all three doses tested (as printed in text), read-out: inhibition of liver lipogenesis) | drug interaction effect in combination with sorafenib (Hepa1-6 cells; at various concentrations)
1 | CC(C)(CCCCc1ccc(CCCCC(C)(C)C(=O)O)cc1)C(=O)O [Compound I-1, 6-[4-(5-carboxy-5-methylhexyl)-phenyl]-2,2-dimethylhexanoic acid] | suppression | 55.65% | 68.96% | 17.8% | 56% | 69% | synergism | synergism | – | – | – | –
2 | CC(C)(CCCCc1ccc(CCCCC(C)(C)C(=O)SCCNC(=O)CCNC(=O)[C@H](O)C(C)(C)COP(=O)(O)OP(=O)(O)OC[C@H]2O[C@@H](n3cnc4c(N)ncnc43)[C@H](O)[C@@H]2OP(=O)(O)O)cc1)C(=O)O [Compound I-1-CoA, 6-[4-(5-carboxy-5-methylhexyl)-phenyl]-2,2-dimethylhexanoic acid Coenzyme A ester] | – | – | – | – | – | – | – | – | 9.41e-06 M and 7.72e-06 M and 9.06e-06 M | – | – | –
3 | CC(C)(CCCCc1cccc(CCCCC(C)(C)C(=O)O)c1)C(=O)O [Compound I-32, 6-[3-(5-carboxy-5-methylhexyl)-phenyl]-2,2-dimethylhexanoic acid] | – | 37.42% | 52.90% | 49% | 37% | 53% | synergism | – | – | 48.79% | ~50% | synergism
4 | CC(C)(CCCCc1cccc(CCCCC(C)(C)C(=O)SCCNC(=O)CCNC(=O)[C@H](O)C(C)(C)COP(=O)(O)OP(=O)(O)OC[C@H]2O[C@@H](n3cnc4c(N)ncnc43)[C@H](O)[C@@H]2OP(=O)(O)O)c1)C(=O)O [Compound I-32-CoA, 6-[3-(5-Carboxy-5-methylhexyl)-phenyl]-2,2-dimethylhexanoic acid Coenzyme A Ester] | – | – | – | – | – | – | – | – | 5.02e-06 M and 4.22e-06 M and 3.33e-06 M | – | – | –
